Measured values published in PMC12481569, “Novltex: A New Class of Antibiotics with Potent Activity against Multidrug-Resistant Bacterial Pathogens–Design, Synthesis, and Biological Evaluation” (Journal of Medicinal Chemistry, 2025).
≈ marks a conversion by molar mass, not a printed value. Positions of bridges follow the written chain, without caps; N, C: chain ends. Non-standard residues stand in square brackets, D forms with d. Residues, ends and D or L forms follow the SMILES beside them. dCha = N[C@H](CC1CCCCC1)C(=O)O

Tests used:
[1] = system: MRSA ATCC 33591; assay: microbe, parasite or virus in culture; assay type: cell-based, Staphylococcus aureus; conditions: Table 2; MHB with 0.002% polysorbate 80, 37 °C, 24 h, two independent duplicates
Protocol: (§1) MICs were performed as previously reported 4. For MIC testing all peptides were dissolved in DMSO.
(§2) Bacterial cultures were grown overnight on Mueller-Hinton Agar (MHA) plates and adjusted to a final inoculum of 10^5 – 10^6 CFU/mL. 100 µl of ino culum in Meuller -Hinton broth (MHB) was mixed with equal volume of peptides (dissolved in MHB) at 2x their concentration in a 96 well plate . For daptomycin MIC determination, the same protocol was followed with the addition of 50 mg/L calcium chloride to the medium. MIC values were determined in the media contain ing polysorbate 80 (0.002%, v/v) to prevent non -specific adsorption of the peptides to plastic surfaces. The final peptides concentrations ranged from 0.0625 – 32 µg/mL. The 96 well plates were then incubated at 37 °C for 24 h. All the experiments were performed in two independent duplicates and the MIC was determined as the lowest concentration in which no visible growth was observed. […]

[2] = system: Multidrug-Resistant (MDR) E. faecium; assay: microbe, parasite or virus in culture
Protocol: (§3) We further evaluated analogue 12 against multidrug-resistant (MDR) strains of S. aureus (acquired from the NARSA collection) and MDR E. faecium (acquired from International Health Management Associates, IHMA, Europe Sarl), comparing its activity to various classes of clinically used antibiotics (Table ).
as §1
(§4) Bacterial cultures were grown overnight on Mueller-Hinton Agar (MHA) plates and adjusted to a final inoculum of 10^5 – 10^6 CFU/mL. 100 µl of ino culum in Meuller -Hinton broth (MHB) was mixed with equal volume of peptides (dissolved in MHB) at 2x their concentration in a 96 well plate . For daptomycin MIC determination, the same protocol was followed with the addition of 50 mg/L calcium chloride to the medium. MIC values were determined in the media contain ing polysorbate 80 (0.002%, v/v) to prevent non -specific adsorption of the peptides to plastic surfaces. The final peptides concentrations ranged from 0.0625 – 32 µg/mL. The 96 well plates were then incubated at 37 °C for 24 h. All the experiments were performed in two independent duplicates and the MIC was determined as the lowest concentration in which no visible growth was observed.
(§5) Antibiotics MIC break points ( µg/mL)
(§6) Table. S4: Susceptibility cut-off values (MIC breakpoints) for various clinical antibiotics. […]

[3] = system: Multidrug-Resistant (MDR) S. aureus; assay: microbe, parasite or virus in culture; conditions: MHB, 0.002% polysorbate 80, 37 °C, 24 h, daptomycin with 50 mg/L calcium chloride
Protocol: as §3, §1, §4, §5, §6

[4] = system: MDR clinical strains of S. aureus and E. faecium; assay type: cell-based, Staphylococcus aureus; Enterococcus faecium; conditions: range over 4 S. aureus and 3 E. faecium strains
Protocol: as §1, §2

[5] = Lipid II binding, spot-on-lawn assays on S. aureus ATCC 33591; set-up: species or system Staphylococcus aureus; conditions: overnight 37 °C
Text: 6 Spot-on-lawn assays to evaluate binding of Lipid II with analogue 12 on S. aureus ATCC 33591. (A) Analogue 12 was premixed with increasing ratios of lipid II (0.5 to 4 equiv) and spotted onto a seeded lawn of S. aureus 33591. Lipid II and analogue 12 were also spotted independently. The position of the analogue 12–lipid II mixture is marked in red. (B) Daptomycin was used as a negative control. Asterisks denote the positions of analogue 12 (black), lipid II (blue), and daptomycin (green) additions.
Analogue 12 was premixed with increasing ratios of lipid II (0.5 to 4 equiv) for 10 min prior to spotting onto agar plates seeded with a lawn of S. aureus ATCC 33591 and incubated overnight.
XII. Lipid II binding determination of analogue 12
Previously reported methods were used to determine the lipid II binding of analogue 126,7. The lipid II used in this study was prepared by chemical synthesis and its preparation and purification has been […]
A: An overnight culture of S. aureus ATCC 33591 was added to LB agar (45 °C) at a final concentration of 0.1% (vol/vol) and pour-plated into 90 mm petri dishes. Binding of 12 to purified lipid II was assessed using a spot-on-lawn assay. Premixed solutions (5 µL) containing analogue 12 (8 µg) with varying concentration of lipid II were spotted onto the agar, alongside individual controls of 12 and lipid II.
After drying, plates were incubated overnight at 37 °C. This assay was performed in duplicates.
B: To assess the interaction between analogue 12 and lipid II, a culture of S. aureus ATCC 33591 was grown overnight in LB broth and inoculated into LB agar at a final concentration of 1% (v/v) at 45°C.
This mixture was evenly distributed into 90mm petri dishes. Antibiotic inhibition haloes were previously determined by spotting analogue 12 and daptomycin (5 μL,8 µg/mL) onto agar plates and measuring the diameter of the halo after overnight incubation at 37 °C . The binding affinity of analogue 12 and lipid II was later examined by applying purified lipid II (300 μM, 2 μL) to the edge of the antibiotic halo. Analogue 12 and Daptomycin were applied to the inoculated agar plate at a spaced distance, once the antimicrobial solution drops had dried, lipid II was spotted on the edge of the inhibition halo. The plates were then incubated overnight at 37 °C. […]

Question: What does the source list for `CC(C)C[C@@H]1NC(=O)[C@H](C)NC(=O)[C@H](NC(=O)[C@H](CO)NC(=O)[C@@H](CCCCN)NC(=O)[C@@H](CC2CCCCC2)NC(=O)[C@@H](N)Cc2ccccc2)[C@H](C)OC(=O)[C@H](CC(C)C)NC1=O` [analogue 12, Leu2Cha–Novltex] (H-F[dCha][dK]S[dT]ALL; ester 5-C)?
Answer: MIC against MRSA ATCC 33591 [1]: 0.25 µg/mL (≈ 0.273 µM); MIC, Enterococcus faecium 1563254 ([2]; MDR clinical isolate 1563254, MHB, 0.002% polysorbate 80, 37 °C, 24 h, daptomycin with 50 mg/L calcium chloride): 0.25 µg/mL (≈ 0.273 µM); MIC, Enterococcus faecium 1581582 ([2]; MDR clinical isolate 1581582, MHB, 0.002% polysorbate 80, 37 °C, 24 h, daptomycin with 50 mg/L calcium chloride): 0.5 µg/mL (≈ 0.547 µM); MIC, Enterococcus faecium 1766686 ([2]; MDR clinical isolate 1766686, MHB, 0.002% polysorbate 80, 37 °C, 24 h, daptomycin with 50 mg/L calcium chloride): 0.125 µg/mL (≈ 0.137 µM); MIC range against MDR E. faecium strains ([2]; range over the three clinical isolates): 0.125 to 0.5 µg/mL; MIC, Staphylococcus aureus NR 45914 ([3]; MDR strain NR 45914): 0.125 µg/mL (≈ 0.137 µM); MIC, Staphylococcus aureus NR 45926 ([3]; MDR strain NR 45926): 0.125 µg/mL (≈ 0.137 µM); MIC, Staphylococcus aureus NR 45930 ([3]; MDR strain NR 45930): 0.125 µg/mL (≈ 0.137 µM); MIC, Staphylococcus aureus NR 46062 ([3]; MDR strain NR 46062): 0.063 µg/mL (≈ 0.0689 µM); MIC against both groups of MDR clinical strains [4]: 0.063 to 0.5 µg/mL; zone of inhibition, spot-on-lawn ([5]; absence of lipid II, 8 µg spotted, duplicates): clear and substantial zone of inhibition; zone of inhibition, spot-on-lawn, premixed with lipid II ([5]; lipid II 1:1 ratio, premixed 10 min): antimicrobial activity was completely abolished; halo distortion on addition of lipid II ([5]; lipid II (300 μM, 2 μL) at the edge of the antibiotic halo, duplicates): formed a noncircular spot; zone of inhibition, spot-on-lawn, premixed with lipid II ([5]; lipid II ratio 0.5, premixed 10 min): only a faint zone remained
